# Literature values, collected in patent US20240239814A1, “Complexes Of CU(I) As Antitumor Agents” (priority 2021, published 2024).
# What was measured:
# [1] = compared with CDDP; cited from earlier work
# [2] = animals of the Lewis Lung Carcinoma model; cited from earlier work
# [3] = tested on: LoVo colon cancer spheroids; details: cited from earlier work
# [4] = cited from earlier work
# [5] = tested on: human non transformed cells; details: average IC50 normal cells / average IC50 malignant cells; cited from earlier work
# proteasome = details: cited from earlier work
# [6] = tested on: human colorectal cancer xenografts; details: oxaliplatin-sensitive and resistant models; cited from earlier work
# [7] = tested on: human cancer cell lines endowed with acquired or natural resistance to CDDP or to OXP; details: fold lower IC50 in resistant cell lines; cited from earlier work
# Lewis Lung Carcinoma = details: different schedules, compared with CDDP; cited from earlier work
# [8] = tested on: panel of human cancer cells; details: 2D monolayer, cited from earlier work
# [9] = tested on: HCT-15 colon cancer spheroids; details: HCT-15 spheroids; cited from earlier work
structure (smiles),measurement,setting,value
F[P-](F)(F)(F)(F)F.OCP(CO)CO.OCP(CO)CO.OCP(CO)CO.OCP(CO)CO.[Cu+] [[Cu(thp)4][PF6]],median lethal doses (LD50) and maximum tolerated doses (MTD),[1],significantly higher that those recorded with CDDP
same,clinical signs of toxicity,[2],no clinical signs of toxicity and no anorexia
same,IC50 relative to OXP,[3],very similar to those of OXP
same,solubility and stability in water solution,[4],highly soluble and stable in water solution
same,selectively index relative to CDDP,[5],about 30 times
same,selectively index relative to OXP,[5],3 times
same,effect on proteolytic activities of proteasome,proteasome,inhibit the proteolytic activities of proteasome
same,efficacy of chemotherapy in xenografts,[6],extremely effective in both oxaliplatin-sensitive and resistant models
same,IC50 relative to the reference metallodrugs,[7],up to 35 fold
same,inhibition of proliferation of tumor cell population in vivo,Lewis Lung Carcinoma,superior to that induced by the gold-standard drug CDDP
same,cytotoxicity relative to CDDP,[8]; fold more cytotoxic than CDDP,up to 50 fold
same,cytotoxicity relative to OXP,[8]; fold more cytotoxic than OXP,≤ 30 fold
same,IC50 relative to OXP,[9],very similar to those of OXP
